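Method: 48-hour compound exposure of cells in 96-well plates, five concentrations, linear interpolation of endpoints. Here, GI50 denotes the concentration required for 50% inhibition of growth. TGI marks complete inhibition of growth.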
Legend:
Assay in all cases: growth of human tumour cells (NCI), 48 h; in the data active = GI50 below about 0.43 µM; inactive = the rest
HOP-92 NSCLC = test system: HOP-92 NSCLC
T-47D breast = test system: T-47D breast
U251 CNS = test system: U251 CNS
RXF 393 renal = test system: RXF 393 renal
M14 melanoma = test system: M14 melanoma
SF-295 CNS = test system: SF-295 CNS
HCC-2998 colon = test system: HCC-2998 colon
K-562 leukemia = test system: K-562 leukemia
KM12 colon = test system: KM12 colon
SR leukemia = test system: SR leukemia
HT29 colon = test system: HT29 colon
HS 578T breast = test system: HS 578T breast
BT-549 breast = test system: BT-549 breast
SF-268 CNS = test system: SF-268 CNS
SNB-19 CNS = test system: SNB-19 CNS
SF-539 CNS = test system: SF-539 CNS
SNB-75 CNS = test system: SNB-75 CNS
786-0 renal = test system: 786-0 renal
HOP-62 NSCLC = test system: HOP-62 NSCLC
NCI-H522 lung = test system: NCI-H522 lung
TK-10 renal = test system: TK-10 renal
COLO 205 colon = test system: COLO 205 colon
SK-OV-3 ovarian = test system: SK-OV-3 ovarian
MALME-3M melanoma = test system: MALME-3M melanoma
DU-145 prostate = test system: DU-145 prostate
IGROV1 ovarian = test system: IGROV1 ovarian
UO-31 renal = test system: UO-31 renal
OVCAR-3 ovarian = test system: OVCAR-3 ovarian
SN12C renal = test system: SN12C renal
RPMI-8226 leukemia = test system: RPMI-8226 leukemia
NCI-H460 lung = test system: NCI-H460 lung
NCI-H226 lung = test system: NCI-H226 lung
HL-60(TB) leukemia = test system: HL-60(TB) leukemia
HCT-116 colon = test system: HCT-116 colon
ACHN renal = test system: ACHN renal
NCI/ADR-RES ovarian = test system: NCI/ADR-RES ovarian
CCRF-CEM leukemia = test system: CCRF-CEM leukemia
UACC-62 melanoma = test system: UACC-62 melanoma
HCT-15 colon = test system: HCT-15 colon
SK-MEL-2 melanoma = test system: SK-MEL-2 melanoma
MDA-MB-435 = test system: MDA-MB-435
MCF7 breast = test system: MCF7 breast
OVCAR-8 ovarian = test system: OVCAR-8 ovarian
LOX IMVI melanoma = test system: LOX IMVI melanoma
SW-620 colon = test system: SW-620 colon
NCI-H23 lung = test system: NCI-H23 lung
OVCAR-5 ovarian = test system: OVCAR-5 ovarian
MDA-MB-231 breast = test system: MDA-MB-231 breast
PC-3 prostate = test system: PC-3 prostate
CAKI-1 renal = test system: CAKI-1 renal
UACC-257 melanoma = test system: UACC-257 melanoma
MOLT-4 leukemia = test system: MOLT-4 leukemia
OVCAR-4 ovarian = test system: OVCAR-4 ovarian
EKVX NSCLC = test system: EKVX NSCLC
SK-MEL-28 melanoma = test system: SK-MEL-28 melanoma
A549 NSCLC = test system: A549 NSCLC
SK-MEL-5 melanoma = test system: SK-MEL-5 melanoma

Cc1c(C(=O)Nc2ccc(Oc3ccnc4cc(OCC(C)(C)O)ccc34)c(F)c2)c(=O)n(-c2ccccc2)n1C
22.2 µM: TGI (HOP-92 NSCLC)
active: GI50 (K-562 leukemia) 0.393 µM | GI50 (KM12 colon) 0.226 µM
15.3 µM: TGI (K-562 leukemia)
inactive: GI50 (HOP-92 NSCLC) 1.88 µM | GI50 (T-47D breast) 2.79 µM | GI50 (U251 CNS) 8.86 µM | GI50 (RXF 393 renal) 2.72 µM | GI50 (M14 melanoma) 2.47 µM | GI50 (SF-295 CNS) 0.782 µM | GI50 (HCC-2998 colon) > 100 µM | GI50 (SR leukemia) 3.66 µM | GI50 (HT29 colon) 2.29 µM | GI50 (HS 578T breast) 3.04 µM | GI50 (BT-549 breast) 4.53 µM | GI50 (SF-268 CNS) 6.37 µM | GI50 (SNB-19 CNS) 7.23 µM | GI50 (SF-539 CNS) 1.46 µM | GI50 (SNB-75 CNS) 2.93 µM | GI50 (786-0 renal) 5.2 µM | GI50 (HOP-62 NSCLC) 19.4 µM | GI50 (NCI-H522 lung) 8.43 µM | GI50 (TK-10 renal) 9.9 µM | GI50 (COLO 205 colon) 2.81 µM | GI50 (SK-OV-3 ovarian) 6.46 µM
> 100 µM: TGI (T-47D breast) | TGI (U251 CNS) | TGI (RXF 393 renal) | TGI (M14 melanoma) | TGI (SF-295 CNS) | TGI (HCC-2998 colon) | TGI (KM12 colon) | TGI (SR leukemia) | TGI (HT29 colon) | TGI (HS 578T breast) | TGI (BT-549 breast) | TGI (SF-268 CNS) | TGI (SNB-19 CNS) | TGI (SF-539 CNS) | TGI (SNB-75 CNS) | TGI (786-0 renal) | TGI (HOP-62 NSCLC) | TGI (NCI-H522 lung) | TGI (TK-10 renal) | TGI (COLO 205 colon) | TGI (SK-OV-3 ovarian)

CCOC(=O)c1nc2sc(Cl)cn2c1/C=N/N=C(N)N
> 53.8 µM: TGI (OVCAR-8 ovarian)
35.6 µM: TGI (UO-31 renal)
74.5 µM: TGI (HS 578T breast)
> 55.1 µM: TGI (NCI-H226 lung)
68.8 µM: TGI (SNB-75 CNS)
> 75.2 µM: TGI (HCT-15 colon)
> 53.9 µM: TGI (U251 CNS)
> 76.9 µM: TGI (CAKI-1 renal)
57.6 µM: TGI (SN12C renal)
> 58.3 µM: TGI (A549 NSCLC)
> 67.5 µM: TGI (DU-145 prostate)
37.9 µM: TGI (MALME-3M melanoma) | TGI (COLO 205 colon)
47.6 µM: TGI (TK-10 renal)
98.3 µM: TGI (SK-OV-3 ovarian)
53.4 µM: TGI (ACHN renal)
51 µM: TGI (SK-MEL-28 melanoma)
> 59.6 µM: TGI (NCI-H460 lung) | TGI (BT-549 breast)
49.5 µM: TGI (OVCAR-5 ovarian)
> 23.1 µM: TGI (SK-MEL-5 melanoma)
> 51.5 µM: TGI (RPMI-8226 leukemia)
> 86 µM: TGI (UACC-257 melanoma)
> 56.8 µM: TGI (PC-3 prostate)
39.8 µM: TGI (786-0 renal)
53.6 µM: TGI (K-562 leukemia)
> 64.2 µM: TGI (CCRF-CEM leukemia)
43.8 µM: TGI (SW-620 colon)
> 86.4 µM: TGI (HT29 colon)
> 54.6 µM: TGI (LOX IMVI melanoma)
> 83.4 µM: TGI (NCI/ADR-RES ovarian)
> 70.2 µM: TGI (RXF 393 renal)
> 87.2 µM: TGI (SK-MEL-2 melanoma)
> 74 µM: TGI (T-47D breast)
40.8 µM: TGI (HOP-92 NSCLC) | TGI (HCT-116 colon)
> 58.2 µM: TGI (MDA-MB-435)
> 100 µM: TGI (IGROV1 ovarian) | TGI (HL-60(TB) leukemia) | TGI (SF-268 CNS) | TGI (SNB-19 CNS) | TGI (SF-539 CNS) | TGI (MOLT-4 leukemia) | TGI (OVCAR-4 ovarian)
> 69.8 µM: TGI (NCI-H23 lung)
37.2 µM: TGI (MDA-MB-231 breast)
34.5 µM: TGI (UACC-62 melanoma)
> 52.3 µM: TGI (SF-295 CNS)
61.6 µM: TGI (EKVX NSCLC)
40.4 µM: TGI (HOP-62 NSCLC)
36.6 µM: TGI (KM12 colon)
inactive: GI50 (HOP-92 NSCLC) 20 µM | GI50 (MALME-3M melanoma) 17.8 µM | GI50 (T-47D breast) 30.6 µM | GI50 (U251 CNS) 23.6 µM | GI50 (RXF 393 renal) 18.8 µM | GI50 (DU-145 prostate) 24.8 µM | GI50 (IGROV1 ovarian) 32.7 µM | GI50 (M14 melanoma) 18.8 µM | GI50 (UO-31 renal) 18.3 µM | GI50 (SF-295 CNS) 27.7 µM | GI50 (K-562 leukemia) 17 µM | GI50 (KM12 colon) 18.3 µM | GI50 (OVCAR-3 ovarian) 21.5 µM | GI50 (SN12C renal) 24 µM | GI50 (RPMI-8226 leukemia) 13 µM | GI50 (NCI-H460 lung) 28.2 µM | GI50 (NCI-H226 lung) 26.3 µM | GI50 (HL-60(TB) leukemia) 26.1 µM | GI50 (HT29 colon) 28.7 µM | GI50 (HS 578T breast) 19.1 µM | GI50 (HCT-116 colon) 18 µM | GI50 (ACHN renal) 22.3 µM | GI50 (NCI/ADR-RES ovarian) 39 µM | GI50 (BT-549 breast) 28.3 µM | GI50 (SF-268 CNS) 32 µM | GI50 (CCRF-CEM leukemia) 25.2 µM | GI50 (UACC-62 melanoma) 17.6 µM | GI50 (HCT-15 colon) 26.8 µM | GI50 (SNB-19 CNS) 30 µM | GI50 (SK-MEL-2 melanoma) 36.5 µM | GI50 (MDA-MB-435) 25.3 µM | GI50 (MCF7 breast) 27.5 µM | GI50 (OVCAR-8 ovarian) 26.9 µM | GI50 (SF-539 CNS) 42.7 µM | GI50 (LOX IMVI melanoma) 25.3 µM | GI50 (SW-620 colon) 14.7 µM | GI50 (NCI-H23 lung) 20.4 µM | GI50 (OVCAR-5 ovarian) 20.7 µM | GI50 (SNB-75 CNS) 27.9 µM | GI50 (MDA-MB-231 breast) 14.3 µM | GI50 (786-0 renal) 18.6 µM | GI50 (PC-3 prostate) 24.4 µM | GI50 (HOP-62 NSCLC) 19.1 µM | GI50 (CAKI-1 renal) 27 µM | GI50 (NCI-H522 lung) 20.5 µM | GI50 (UACC-257 melanoma) 35.8 µM | GI50 (TK-10 renal) 22.2 µM | GI50 (COLO 205 colon) 15.1 µM | GI50 (MOLT-4 leukemia) 22.8 µM | GI50 (OVCAR-4 ovarian) 30.3 µM | GI50 (EKVX NSCLC) 26.1 µM | GI50 (SK-OV-3 ovarian) 44.3 µM | GI50 (SK-MEL-28 melanoma) 18.2 µM | GI50 (A549 NSCLC) 26.9 µM | GI50 (SK-MEL-5 melanoma) 1.72 µM
45.6 µM: TGI (M14 melanoma)
> 58.7 µM: TGI (MCF7 breast)
42.1 µM: TGI (OVCAR-3 ovarian)
47.1 µM: TGI (NCI-H522 lung)
